ChEMBL document CHEMBL5137095, “N-Benzyl Benzamide Derivatives as Selective Sub-Nanomolar Butyrylcholinesterase Inhibitors for Possible Treatment in Advanced Alzheimer's Disease” (J Med Chem, 2022)
pIC50, pKd, pKi: −log10 of the molar value.

Assays:
Cholinesterase [1] = biological target: T1, Cholinesterase (Homo sapiens, UniProt P06276); assay: Inhibition of human BChE using acetylthiocholine iodide or butyrylthiocholine iodide as substrate preincubated for 5 mins followed by substrate addition by Ellman's method
T1 sequence (P06276 whole entry): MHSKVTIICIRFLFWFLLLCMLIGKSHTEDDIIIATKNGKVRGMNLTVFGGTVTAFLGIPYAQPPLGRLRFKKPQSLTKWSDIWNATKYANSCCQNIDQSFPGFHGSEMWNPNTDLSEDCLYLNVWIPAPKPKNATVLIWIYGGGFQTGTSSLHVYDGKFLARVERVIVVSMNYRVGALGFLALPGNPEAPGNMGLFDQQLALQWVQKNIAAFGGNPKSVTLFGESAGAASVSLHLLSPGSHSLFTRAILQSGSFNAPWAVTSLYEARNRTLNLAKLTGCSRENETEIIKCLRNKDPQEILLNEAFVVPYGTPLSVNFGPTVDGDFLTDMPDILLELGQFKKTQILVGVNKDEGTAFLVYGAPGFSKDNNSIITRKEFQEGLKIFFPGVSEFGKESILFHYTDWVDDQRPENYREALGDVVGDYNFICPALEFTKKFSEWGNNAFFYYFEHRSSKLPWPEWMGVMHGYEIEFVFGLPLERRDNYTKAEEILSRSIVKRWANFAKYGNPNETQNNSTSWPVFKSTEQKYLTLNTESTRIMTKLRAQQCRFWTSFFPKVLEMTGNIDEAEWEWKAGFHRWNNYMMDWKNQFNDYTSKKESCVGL

Cholinesterase [2] = biological target: Cholinesterase (Equus caballus, UniProt P81908); assay: Inhibition of horse serum BChE using acetylthiocholine iodide or butyrylthiocholine iodide as substrate preincubated for 5 mins followed by substrate addition by Ellman's method
Sequence of Cholinesterase (Equus caballus, UniProt P81908) (P81908 whole entry): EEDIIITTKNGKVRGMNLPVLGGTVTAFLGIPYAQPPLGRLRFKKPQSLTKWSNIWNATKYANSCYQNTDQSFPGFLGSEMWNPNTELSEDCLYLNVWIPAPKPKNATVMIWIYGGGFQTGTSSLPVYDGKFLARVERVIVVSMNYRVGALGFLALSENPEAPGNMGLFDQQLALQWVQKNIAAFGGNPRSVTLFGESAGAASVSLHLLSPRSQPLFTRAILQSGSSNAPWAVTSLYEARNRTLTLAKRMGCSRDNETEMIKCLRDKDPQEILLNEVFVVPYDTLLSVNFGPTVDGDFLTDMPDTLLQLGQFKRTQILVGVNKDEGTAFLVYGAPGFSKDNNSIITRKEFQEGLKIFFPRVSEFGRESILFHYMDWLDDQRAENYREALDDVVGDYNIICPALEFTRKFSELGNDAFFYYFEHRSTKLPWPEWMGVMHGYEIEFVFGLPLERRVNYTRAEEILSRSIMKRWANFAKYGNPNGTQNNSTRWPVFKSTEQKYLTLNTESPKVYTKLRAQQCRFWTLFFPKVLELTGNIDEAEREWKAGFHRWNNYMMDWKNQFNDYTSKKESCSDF

[3] = n-octanol-water partition coefficient, log P of the compound by HPLC analysis; assay type: physicochemical
BV-2 = assay: Cytotoxicity against mouse BV-2 cells assessed as reduction in cell viability at 10 uM by MTT assay; assay type: toxicity, cell-based; conditions: bv-2, 10 µM
PC-12 [4] = assay: Cytotoxicity against rat PC-12 cells assessed as reduction in cell viability at 10 uM by MTT assay; assay type: toxicity, cell-based; conditions: pc-12, 10 µM
SH-SY5Y [5] = assay: Cytotoxicity against human SH-SY5Y cells assessed as reduction in cell viability at 10 uM by MTT assay; assay type: toxicity, cell-based
[6] = Cytotoxicity against rat PC-12 cells assessed as cell survival rate at 10 uM by MTT assay; assay type: toxicity, cell-based; conditions: read-out: Activity
HT-22 = assay: Cytotoxicity against mouse HT-22 cells assessed as reduction in cell viability at 10 uM by MTT assay; assay type: toxicity, cell-based; conditions: ht-22, 10 µM
[7] = Cytotoxicity against mouse HT-22 cells assessed as cell survival rate at 10 uM by MTT assay; assay type: toxicity, cell-based; conditions: read-out: Activity
[8] = Cytotoxicity against human SH-SY5Y cells assessed as cell survival rate at 10 uM by MTT assay; assay type: toxicity, cell-based; conditions: read-out: Activity
[9] = Cytotoxicity against mouse BV-2 cells assessed as cell survival rate at 10 uM by MTT assay; assay type: toxicity, cell-based; conditions: read-out: Activity
SH-SY5Y [10] = assay: Neuroprotective activity against GA-induced cell damage in human SH-SY5Y cells assessed as survival rate at 5 uM pretreated for 2 hrs followed by GA addition and measured after 24 hrs by MTT assay; assay type: functional
[11] = Permeability of compound incubated for 18 hrs by PAMPA-BBB assay; assay type: ADME; conditions: read-out: permeability
Cholinesterase [12] = biological target: T1, Cholinesterase; assay: Binding affinity to human BChE assessed as dissociation constant by surface plasmon resonance assay
Cholinesterase [13] = biological target: T1, Cholinesterase; assay: Inhibition of human BChE assessed as inhibition constant
[14] = Acute toxicity in ICR mouse assessed as effect on consumption of water and food at 1000 mg/kg, po measured after 14 days; assay type: organism-based; conditions: in vivo, 336 h, time 14 day
[15] = Acute toxicity in ICR mouse assessed as increase in body weight at 1000 mg/kg, po measured after 14 days; assay type: organism-based; conditions: in vivo, 336 h, time 14 day
[16] = Acute toxicity in ICR mouse assessed as abnormal behavior at 1000 mg/kg, po measured after 4 hrs; assay type: organism-based; conditions: in vivo
PC-12 [17] = assay: Neuroprotective activity against H2O2-induced cell damage in rat PC-12 cells assessed as survival rate at 5 to 10 uM pretreated for 2 hrs followed by H2O2 addition and measured after 24 hrs by MTT assay; assay type: functional; conditions: dose 5-10 µM, time 26 hrs
[18] = Inhibition of human BChE assessed as inhibition constant

CCN(CC)Cc1ccccc1CNC(=O)c1cccc(NS(=O)(=O)c2cccs2)c1
pIC50 (Cholinesterase [1]): 5.58 | pIC50 (Cholinesterase [2]): 6.46

CCN(CC)Cc1ccccc1CNC(=O)c1cccc(C(=O)Nc2cccs2)c1
pIC50 (Cholinesterase [1]): 7.89 | pIC50 (Cholinesterase [2]): 8.92

CCN(CC)Cc1ccccc1CNC(=O)c1cccc(NC(=O)c2cccc(F)c2)c1
pIC50 (Cholinesterase [1]): 8.51

CCN(CC)Cc1ccccc1CNC(=O)c1cc(F)cc(NC(=O)c2ccc(F)cc2)c1
pIC50 (Cholinesterase [1]): 9.21 | pIC50 (Cholinesterase [2]): 9.26 | logP [3]: 1.36

CCN(CC)Cc1ccccc1CNC(=O)c1cccc(NC(=O)c2ccccc2)c1
pIC50 (Cholinesterase [2]): 9.02

CCN(CC)Cc1ccccc1CNC(=O)c1cccc(NC(=O)c2ccc(C)cc2)c1
Activity (BV-2): Non-Toxic | Activity (PC-12 [4]): Non-Toxic | Activity (SH-SY5Y [5]): Non-Toxic | viability at 10 µM [6]: > 70% | Activity (HT-22): Non-Toxic | pIC50 (Cholinesterase [1]): 7.35 | viability at 10 µM [7]: > 70% | pIC50 (Cholinesterase [2]): 7.11 | viability at 10 µM [8]: > 70% | viability at 10 µM [9]: > 70%

CCN(CC)Cc1ccc(CNC(=O)c2cccc(NC(=O)c3cccs3)c2)cc1
pIC50 (Cholinesterase [1]): 5.46 | pIC50 (Cholinesterase [2]): 5.23

CCN(CC)Cc1ccccc1CNC(=O)c1cc(Br)cc(NC(=O)c2ccc(F)cc2)c1
Activity (SH-SY5Y [10]): 70% | Papp at 18 h [11]: 6.93 ×10⁻⁶ cm/s | pIC50 (Cholinesterase [1]): 9.24 | pIC50 (Cholinesterase [2]): 9.38 | logP [3]: 2.04

CCN(CC)Cc1ccccc1CNC(=O)c1cccc(NC(=O)c2ccccc2F)c1
pIC50 (Cholinesterase [1]): 8.30 | pIC50 (Cholinesterase [2]): 8.18

CCN(CC)Cc1ccccc1CNC(=O)c1cccc(NC(=O)c2ccc(Cl)cc2)c1
Papp at 18 h [11]: 6.02 ×10⁻⁶ cm/s | pIC50 (Cholinesterase [1]): 9.12 | pIC50 (Cholinesterase [2]): 8.99 | logP [3]: 2.67

CCN(CC)Cc1ccccc1CNC(=O)c1ccc(C)c(NC(=O)c2ccc(F)cc2)c1
pIC50 (Cholinesterase [1]): 6.87 | pIC50 (Cholinesterase [2]): 9.42

O=C(NCc1ccccc1)c1cccc(NC(=O)c2cccs2)c1
pIC50 (Cholinesterase [1]): 4.50 | pIC50 (Cholinesterase [2]): 4.01

CCN(CC)Cc1ccccc1CNC(=O)c1cccc(NC(=O)c2ccc(I)cc2)c1
Papp at 18 h [11]: 10.1 ×10⁻⁶ cm/s | pIC50 (Cholinesterase [1]): 9.96 | pIC50 (Cholinesterase [2]): 9.47

CCN(CC)Cc1ccccc1CNC(=O)c1cc(C)cc(NC(=O)c2ccc(F)cc2)c1
pKd (Cholinesterase [12]): 10.19 | pKi (Cholinesterase [13]): 10.03 | Activity [14]: Non-Toxic | Papp at 18 h [11]: 9.17 ×10⁻⁶ cm/s | Activity [15]: Non-Toxic | pIC50 (Cholinesterase [1]): 10.41 | pIC50 (Cholinesterase [2]): 10.68 | Activity [16]: Non-Toxic | logP [3]: 1.26

CCN(CC)Cc1ccccc1CNC(=O)c1cccc(NC(=O)c2c(F)c(F)c(F)c(F)c2F)c1
pIC50 (Cholinesterase [1]): 8.89 | pIC50 (Cholinesterase [2]): 9.32

CCN(CC)Cc1ccccc1CNC(=O)c1ccccc1NC(=O)c1ccc(F)cc1
pIC50 (Cholinesterase [1]): 6.94 | pIC50 (Cholinesterase [2]): 6.73

CCN(CC)Cc1ccccc1CNC(=O)c1cccc(NC(=O)c2ccco2)c1
Activity (BV-2): Non-Toxic | Activity (PC-12 [4]): Non-Toxic | Activity (SH-SY5Y [5]): Non-Toxic | viability at 10 µM [6]: > 70% | Activity (HT-22): Non-Toxic | Papp at 18 h [11]: 6.89 ×10⁻⁶ cm/s | pIC50 (Cholinesterase [1]): 9.59 | viability at 10 µM [7]: > 70% | viability at 10 µM [8]: > 70% | viability at 10 µM [9]: > 70%

CCCN(CCC)Cc1ccccc1CNC(=O)c1cccc(NC(=O)c2cccs2)c1
Activity (BV-2): Non-Toxic | Activity (PC-12 [4]): Non-Toxic | Activity (SH-SY5Y [5]): Non-Toxic | viability at 10 µM [6]: > 70% | Activity (HT-22): Non-Toxic | Papp at 18 h [11]: 8.69 ×10⁻⁶ cm/s | Activity (PC-12 [17]): 61.7% | pIC50 (Cholinesterase [1]): 9.17 | viability at 10 µM [7]: > 70% | viability at 10 µM [8]: > 70% | viability at 10 µM [9]: > 70% | logP [3]: 1.02

CCN(CC)Cc1ccccc1CNC(=O)c1cc(NC(=O)c2ccc(F)cc2)ccc1C
Activity (BV-2): Non-Toxic | Activity (PC-12 [4]): Non-Toxic | Activity (SH-SY5Y [5]): Non-Toxic | viability at 10 µM [6]: > 70% | Activity (HT-22): Non-Toxic | pIC50 (Cholinesterase [1]): 8.57 | viability at 10 µM [7]: > 70% | pIC50 (Cholinesterase [2]): 8.87 | viability at 10 µM [8]: > 70% | viability at 10 µM [9]: > 70%

CCN(CC)C(C)CN1c2ccccc2Sc2ccccc21 (stereo unspecified) [ETHOPROPAZINE]
pKi [18]: 7.70

Cc1ccc2c(c1)sc(-c1ccc(N(C)C)cc1)[n+]2C [THIOFLAVIN T]
pKi (Cholinesterase [13]): 6.10
